Biological target: β-secretase 1 (BACE1) (Homo sapiens, UniProt P56817)
Assay: in vitro fluorogenic peptide cleavage assay, dose response
Assay type: biochemical

Chain of β-secretase 1 (BACE1) (P56817 46-457): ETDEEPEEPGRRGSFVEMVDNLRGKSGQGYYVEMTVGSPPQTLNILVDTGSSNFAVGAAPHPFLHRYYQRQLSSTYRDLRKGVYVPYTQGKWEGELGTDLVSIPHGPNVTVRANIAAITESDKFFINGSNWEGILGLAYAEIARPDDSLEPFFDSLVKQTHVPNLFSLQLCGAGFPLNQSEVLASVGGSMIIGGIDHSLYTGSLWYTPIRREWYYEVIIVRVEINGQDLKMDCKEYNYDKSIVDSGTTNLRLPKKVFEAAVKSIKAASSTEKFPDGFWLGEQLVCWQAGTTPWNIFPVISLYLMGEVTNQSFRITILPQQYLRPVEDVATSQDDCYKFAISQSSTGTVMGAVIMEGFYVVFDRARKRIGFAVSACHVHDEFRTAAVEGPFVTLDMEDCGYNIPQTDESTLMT

Compound `O=P(O)(O)O[C@H]1[C@H](OP(=O)(O)O)[C@@H](OP(=O)(O)O)[C@H](OP(=O)(O)O)[C@@H](OP(=O)(O)O)[C@H]1OP(=O)(O)O` [IP6, myo-inositol hexakisphosphate] has an IC50 of roughly 250 nM.

— article PMC3953730 (FEBS Open Bio, 2014)
